{
  "source": "patent US4112228A",
  "about": "“7-(D-α-Hydroxy-2-arylacetamido)-3-(2-carboxyalkyl-2,3-dihydro-s-tri azolo-[4,3-b]pyridazin-3-on-6-ylthiomethyl)-3-cephem-4-carboxylic acids and derivatives” (priority 1977, dated 1978)",
  "key": {"[1]": {"assay": "pH of aqueous solution of the salt", "format": "physicochemical"}, "[2]": {"assay": "Nephrotoxicity test in rabbits", "details": "comparative test"}, "[3]": {"system": "S. aureus", "assay": "MIC by Steers' agar dilution method", "format": "cell-based", "details": "Staphylococcus aureus, MHA, Example 10"}, "[4]": {"system": "E. coli", "assay": "MIC by Steers' agar dilution method", "format": "cell-based", "details": "Escherichia coli, MHA, Example 10"}, "[5]": {"system": "Kl. pneumoniae", "assay": "MIC by Steers' agar dilution method", "format": "cell-based", "details": "Klebsiella pneumoniae, MHA, Example 10"}, "[6]": {"system": "Pr. morganii", "assay": "MIC by Steers' agar dilution method", "details": "Morganella morganii, MHA, Example 10"}, "[7]": {"system": "Shig. sonnei", "assay": "MIC by Steers' agar dilution method", "format": "cell-based", "details": "Shigella sonnei, MHA; Example 10"}, "[8]": {"system": "Enterob. cloacae", "assay": "MIC by Steers' agar dilution method", "details": "MHA; Example 10"}, "[9]": {"system": "Shig. flexneri", "assay": "MIC by Steers' agar dilution method", "format": "cell-based", "details": "Shigella flexneri, MHA; Example 10"}, "[10]": {"system": "B. anthracis", "assay": "microbe, parasite or virus in culture", "format": "cell-based", "details": "Bacillus anthracis, MHA; Example 10"}, "[11]": {"system": "Shig. dysenteriae", "assay": "MIC by Steers' agar dilution method", "details": "Shigella dysenteriae, MHA; Example 10"}, "[12]": {"system": "Pr. vulgaris", "assay": "MIC by Steers' agar dilution method", "details": "Proteus vulgaris, MHA, Example 10"}, "[13]": {"system": "Sal. enteritidis", "assay": "MIC by Steers' agar dilution method", "details": "Salmonella enterica, MHA, Example 10"}, "[14]": {"system": "Serr. marcescens", "assay": "MIC by Steers' agar dilution method", "details": "Serratia marcescens, MHA; Example 10"}, "[15]": {"system": "Ps. aeruginosa", "assay": "MIC by Steers' agar dilution method", "details": "Pseudomonas aeruginosa, MHA, Example 10"}, "[16]": {"system": "Sal. typhosa", "assay": "MIC by Steers' agar dilution method", "format": "cell-based", "details": "MHA; Example 10"}, "[17]": {"system": "Pr. mirabilis", "assay": "MIC by Steers' agar dilution method", "details": "Proteus mirabilis, MHA, Example 10"}, "[18]": {"system": "Pr. rettgeri", "assay": "MIC by Steers' agar dilution method", "details": "Providencia rettgeri, MHA; Example 10"}, "[19]": {"system": "St. faecalis", "assay": "MIC by Steers' agar dilution method", "details": "Enterococcus faecalis, MHA; Example 10"}},
  "note": "Where two headings read alike, the source gives them in different places.",
  "data": [
    {"smiles": "O=C(O)Cn1nc2ccc(SCC3=C(C(=O)O)N4C(=O)C(NC(=O)[C@H](O)c5ccccc5)C4SC3)nn2c1=O", "note": "(stereo partly drawn) [Example 6, disodium 7-(D-mandelamido)-3-(2-carboxymethyl-2,3-dihydro-s-triazolo[4,3-b]pyridazin-3-on-6-ylthiomethyl)-3-cephem-4-carboxylylate]", "values": [
      {"measurement": "pH of the aqueous solution", "setting": "[1]; 5% aqueous solution", "result": 5.4}
    ]},
    {"smiles": "O=C(O)Cn1nc2ccc(SCC3=C(C(=O)[O-])N4C(=O)C(NC(=O)[C@H](O)c5ccccc5)[C@H]4SC3)nn2c1=O.[Na+]", "note": "(stereo partly drawn) [Sodium Salt of BB-S488, sodium 7-(D-mandelamido)-3-(2-carboxymethyl-2,3-dihydro-s-triazolo[4,3-b]pyridazin-3-on-6-ylthiomethyl)-3-cephem-4-carboxylate]", "values": [
      {"measurement": "pH of the aqueous solution", "setting": "[1]; 10% aqueous solution", "result": 3.6}
    ]},
    {"smiles": "O=C(Cc1cccs1)N[C@@H]1C(=O)N2C(C(=O)[O-])=C(C[n+]3ccccc3)CS[C@H]12", "note": "[cephaloridine, reference compound]", "values": [
      {"measurement": "Nephrotoxicity", "setting": "[2]", "result": "severe nephrotoxicity"}
    ]},
    {"smiles": "O=C(O)CCn1nc2ccc(SCC3=C(C(=O)O)N4C(=O)C(NC(=O)[C@H](O)c5ccccc5)[C@H]4SC3)nn2c1=O", "note": "(single isomer, unassigned) [BB-S 527, 7-[D(-)-Mandelamido]-3-[2-(2-carboxyethyl)-2,3-dihydro-s-triazolo-[4,3-b]pyridazin-3-on-6-ylthiomethyl]-3-cephem-4-carboxylic acid]", "values": [
      {"measurement": "MIC", "setting": "[3]; BX-1633", "result": 3.1, "unit": "µg/mL"},
      {"measurement": "MIC", "setting": "[3]; Smith", "result": 1.6, "unit": "µg/mL"},
      {"measurement": "MIC", "setting": "[3]; strain not named", "result": 0.4, "unit": "µg/mL"},
      {"measurement": "MIC", "setting": "[4]; ATCC8739, ATCC 8739", "result": 12.5, "unit": "µg/mL"},
      {"measurement": "MIC", "setting": "[4]; BX-1373, read-out: MIC", "result": 6.3, "unit": "µg/mL"},
      {"measurement": "MIC", "setting": "[4]; Juhl, read-out: MIC", "result": 0.4, "unit": "µg/mL"},
      {"measurement": "MIC", "setting": "[4]; NIHJ, read-out: MIC", "result": 0.4, "unit": "µg/mL"},
      {"measurement": "MIC", "setting": "[4]; strain not named (1st of 3), read-out: MIC", "result": 0.1, "unit": "µg/mL"},
      {"measurement": "MIC", "setting": "[4]; strain not named (2nd of 3), read-out: MIC", "result": 0.1, "unit": "µg/mL"},
      {"measurement": "MIC", "setting": "[4]; strain not named (3rd of 3), read-out: MIC", "result": 6.3, "unit": "µg/mL"},
      {"measurement": "MIC", "setting": "[5]; strain not named (1st of 4)", "result": 6.3, "unit": "µg/mL"},
      {"measurement": "MIC", "setting": "[5]; strain not named (2nd of 4)", "result": 0.2, "unit": "µg/mL"},
      {"measurement": "MIC", "setting": "[5]; strain not named (3rd of 4)", "result": 0.8, "unit": "µg/mL"},
      {"measurement": "MIC", "setting": "[5]; strain not named (4th of 4)", "result": 0.4, "unit": "µg/mL"},
      {"measurement": "MIC", "setting": "[6]; strain not given (1st of 2)", "result": "> 100", "unit": "µg/mL"},
      {"measurement": "MIC", "setting": "[6]; strain not named (2nd of 2)", "result": 0.4, "unit": "µg/mL"},
      {"measurement": "MIC", "setting": "[7]", "result": 0.1, "unit": "µg/mL"},
      {"measurement": "MIC", "setting": "[8]", "result": 6.3, "unit": "µg/mL"},
      {"measurement": "MIC", "setting": "[9]", "result": 50, "unit": "µg/mL"},
      {"measurement": "MIC", "setting": "[10]", "result": 0.4, "unit": "µg/mL"},
      {"measurement": "MIC", "setting": "[11]", "result": 0.025, "unit": "µg/mL"},
      {"measurement": "MIC", "setting": "[12]; strain not given (1st of 2)", "result": 0.1, "unit": "µg/mL"},
      {"measurement": "MIC", "setting": "[12]; strain not named (2nd of 2)", "result": 12.5, "unit": "µg/mL"},
      {"measurement": "MIC", "setting": "[13]", "result": 0.05, "unit": "µg/mL"},
      {"measurement": "MIC", "setting": "[14]", "result": "> 100", "unit": "µg/mL"},
      {"measurement": "MIC", "setting": "[15]; strain not given (1st of 2)", "result": "> 100", "unit": "µg/mL"},
      {"measurement": "MIC", "setting": "[15]; strain not named (2nd of 2)", "result": "> 100", "unit": "µg/mL"},
      {"measurement": "MIC", "setting": "[16]", "result": 0.1, "unit": "µg/mL"},
      {"measurement": "MIC", "setting": "[17]; strain not given (1st of 2)", "result": 0.2, "unit": "µg/mL"},
      {"measurement": "MIC", "setting": "[17]; strain not named (2nd of 2)", "result": 0.1, "unit": "µg/mL"},
      {"measurement": "MIC", "setting": "[18]", "result": 0.2, "unit": "µg/mL"},
      {"measurement": "MIC", "setting": "[19]", "result": "> 100", "unit": "µg/mL"}
    ]}
  ]
}
